11 compounds from ChEMBL document CHEMBL1134166, “The identification of alpha-ketoamides as potent inhibitors of hepatitis C virus NS3-4A proteinase” (Bioorg Med Chem Lett, 2001) can be followed below.

As usually defined, the IC50 is the concentration needed to halve the response being measured. The low end stands for greater potency in that assay, the high end for weaker potency in that assay.

*1 amine or outer side, *2 acyl side, *3 side chain or, on linkers, in order; H or OH if unused. Where a SMILES comes first, the peptide text is derived from it. [ ]: non-standard residue; d: D form. The star is where a group is joined. X1 = O=C(C(=O)[*:2])[C@H](CC(F)(F)F)N[*:1]; NH(1S-phenylpropyl) = CC[C@H](N*)c1ccccc1; NH(1R-phenylethyl) = C[C@@H](N*)c1ccccc1; NH(1S-phenylethyl) = C[C@H](N*)c1ccccc1; Phe(2-Me) = Cc1ccccc1C[C@H](N)C(=O)O; NleCONH2 = CCCC[C@H](N*)C(=O)C(N)=O; NH(4-OH-benzyl) = Oc1ccc(CN*)cc1; X3 = CCCC[C@@H](N*)C(=O)C(N)=O; X5 = CC[C@H](N*)c1ccc2ccccc2c1; X6 = C[C@H](N*)c1ccc2ccccc2c1; Suc = O=C(CCC(=O)[*:2])[*:1]; Tle = CC(C)(C)[C@H](N)C(=O)O; X4 = CC(C)[C@H](N*)c1ccccc1; NHBn = c1ccc(CN*)cc1; X2 = COc1cccc(CN*)c1 Where only a bound is given, the exact number is not on record here.

Hepatitis C virus serine protease, NS3/NS4A (Hepatitis C virus, UniProt A3EZI9+D2K2A8), sequence (D2K2A8 whole entry): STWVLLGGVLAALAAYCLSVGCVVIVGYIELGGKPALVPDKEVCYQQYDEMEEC
Hepatitis C virus serine protease, NS3/NS4A (Hepatitis C virus, UniProt A3EZI9+D2K2A8), sequence (A3EZI9 whole entry): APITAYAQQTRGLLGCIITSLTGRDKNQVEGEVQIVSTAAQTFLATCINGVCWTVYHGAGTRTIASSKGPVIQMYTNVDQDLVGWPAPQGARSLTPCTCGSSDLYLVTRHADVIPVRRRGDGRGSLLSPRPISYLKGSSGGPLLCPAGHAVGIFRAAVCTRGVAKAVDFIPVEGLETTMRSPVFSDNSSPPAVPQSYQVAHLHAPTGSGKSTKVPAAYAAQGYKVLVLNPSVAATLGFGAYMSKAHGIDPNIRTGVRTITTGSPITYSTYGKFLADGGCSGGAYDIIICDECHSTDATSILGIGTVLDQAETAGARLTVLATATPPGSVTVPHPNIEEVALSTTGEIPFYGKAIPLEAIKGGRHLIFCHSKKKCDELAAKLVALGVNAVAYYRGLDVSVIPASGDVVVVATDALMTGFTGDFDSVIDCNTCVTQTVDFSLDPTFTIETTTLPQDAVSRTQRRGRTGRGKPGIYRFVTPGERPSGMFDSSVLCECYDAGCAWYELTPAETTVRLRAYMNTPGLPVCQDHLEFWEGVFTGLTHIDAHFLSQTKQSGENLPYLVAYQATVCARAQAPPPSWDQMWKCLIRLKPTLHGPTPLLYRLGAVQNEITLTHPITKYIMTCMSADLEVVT

The first assay has as its target Hepatitis C virus serine protease, NS3/NS4A (Hepatitis C virus, UniProt A3EZI9+D2K2A8). The experiment in a line: (§1) Inhibition of hepatitis c virus Non structural protein 3 protease/Non structural protein 4A protease. Format: protein-complex assay, Hepacivirus hominis.
Consider `CCCC[C@H](NC(=O)[C@H](CC(C)C)NC(=O)[C@@H](NC(=O)[C@H](Cc1ccccc1C)NC(=O)[C@H](CCC(=O)O)NC(=O)[C@H](CC(=O)O)NC(=O)CCC(=O)O)C(C)(C)C)C(=O)C(N)=O` (Suc-DE[Phe(2-Me)][Tle]L-NleCONH2), for which 11 nM corresponded to half-maximal inhibition (IC50). This counts as double-digit nanomolar.

For another assay, the target named is Hepatitis C virus serine protease, NS3/NS4A (Hepatitis C virus, UniProt D2K2A8+A3EZI9). The description is as §1. Format: protein-complex assay, Hepacivirus hominis.
Hepatitis C virus serine protease, NS3/NS4A (Hepatitis C virus, UniProt D2K2A8+A3EZI9), sequence (D2K2A8 whole entry): as the sequence (D2K2A8 whole entry) above
Hepatitis C virus serine protease, NS3/NS4A (Hepatitis C virus, UniProt D2K2A8+A3EZI9), sequence (A3EZI9 whole entry): as the sequence (A3EZI9 whole entry) above
Take `Cc1ccccc1C[C@H](NC(=O)[C@H](CCC(=O)O)NC(=O)[C@H](CC(=O)O)NC(=O)CCC(=O)O)C(=O)N[C@H](C(=O)N[C@@H](CC(C)C)C(=O)N[C@@H](CC(F)(F)F)C(=O)C(=O)NCc1ccc(O)cc1)C(C)(C)C` (Suc-DE[Phe(2-Me)][Tle]L[X1]-{NH(4-OH-benzyl)}): inhibition was half-maximal at 4 nM (IC50). Still for that read-out and setting: then `CC[C@H](NC(=O)C(=O)[C@H](CC(F)(F)F)NC(=O)[C@H](CC(C)C)NC(=O)[C@@H](NC(=O)[C@H](Cc1ccccc1C)NC(=O)[C@H](CCC(=O)O)NC(=O)[C@H](CC(=O)O)NC(=O)CCC(=O)O)C(C)(C)C)c1ccccc1` (Suc-DE[Phe(2-Me)][Tle]L[X1]-{NH(1S-phenylpropyl)}), with 7 nM; and `Cc1ccccc1C[C@H](NC(=O)[C@H](CCC(=O)O)NC(=O)[C@H](CC(=O)O)NC(=O)CCC(=O)O)C(=O)N[C@H](C(=O)N[C@@H](CC(C)C)C(=O)N[C@@H](CC(F)(F)F)C(=O)C(=O)N[C@@H](C)c1ccc2ccccc2c1)C(C)(C)C` (Suc-DE[Phe(2-Me)][Tle]L[X1]-X6), with 4 nM. Still for that read-out and setting: as for `CC[C@H](NC(=O)C(=O)[C@H](CC(F)(F)F)NC(=O)[C@H](CC(C)C)NC(=O)[C@@H](NC(=O)[C@H](Cc1ccccc1C)NC(=O)[C@H](CCC(=O)O)NC(=O)[C@H](CC(=O)O)NC(=O)CCC(=O)O)C(C)(C)C)c1ccc2ccccc2c1` (Suc-DE[Phe(2-Me)][Tle]L[X1]-X5), the figure is 8 nM. The same measure, in the same setting: then `Cc1ccccc1C[C@H](NC(=O)[C@H](CCC(=O)O)NC(=O)[C@H](CC(=O)O)NC(=O)CCC(=O)O)C(=O)N[C@H](C(=O)N[C@@H](CC(C)C)C(=O)N[C@@H](CC(F)(F)F)C(=O)C(=O)N[C@H](c1ccccc1)C(C)C)C(C)(C)C` (Suc-DE[Phe(2-Me)][Tle]L[X1]-X4), with 7 nM; and `Cc1ccccc1C[C@H](NC(=O)[C@H](CCC(=O)O)NC(=O)[C@H](CC(=O)O)NC(=O)CCC(=O)O)C(=O)N[C@H](C(=O)N[C@@H](CC(C)C)C(=O)N[C@@H](CC(F)(F)F)C(=O)C(=O)N[C@@H](C)c1ccccc1)C(C)(C)C` (Suc-DE[Phe(2-Me)][Tle]L[X1]-{NH(1S-phenylethyl)}), with 4 nM. `Cc1ccccc1C[C@H](NC(=O)[C@H](CCC(=O)O)NC(=O)[C@H](CC(=O)O)NC(=O)CCC(=O)O)C(=O)N[C@H](C(=O)N[C@@H](CC(C)C)C(=O)N[C@@H](CC(F)(F)F)C(=O)C(=O)NCc1ccccc1)C(C)(C)C` (Suc-DE[Phe(2-Me)][Tle]L[X1]-NHBn) yielded a concentration for half-maximal inhibition (IC50) of 4 nM. The compound `Cc1ccccc1C[C@H](NC(=O)[C@H](CCC(=O)O)NC(=O)[C@H](CC(=O)O)NC(=O)CCC(=O)O)C(=O)N[C@H](C(=O)N[C@@H](CC(C)C)C(=O)N[C@@H](CC(F)(F)F)C(=O)C(=O)N[C@H](C)c1ccccc1)C(C)(C)C` (Suc-DE[Phe(2-Me)][Tle]L[X1]-{NH(1R-phenylethyl)}) gave an IC50 of 1100 nM. On the same count and under the same terms, then `COc1cccc(CNC(=O)C(=O)[C@H](CC(F)(F)F)NC(=O)[C@H](CC(C)C)NC(=O)[C@@H](NC(=O)[C@H](Cc2ccccc2C)NC(=O)[C@H](CCC(=O)O)NC(=O)[C@H](CC(=O)O)NC(=O)CCC(=O)O)C(C)(C)C)c1` (Suc-DE[Phe(2-Me)][Tle]L[X1]-X2), with 6 nM.

The next assay has as its target Trypsin (Homo sapiens, UniProt P07477+P07478+P35030). The experiment in a line: Compound was tested for inhibition of trypsin. Format: protein assay.
`CCCC[C@H](NC(=O)[C@H](CC(C)C)NC(=O)[C@@H](NC(=O)[C@H](Cc1ccccc1C)NC(=O)[C@H](CCC(=O)O)NC(=O)[C@H](CC(=O)O)NC(=O)CCC(=O)O)C(C)(C)C)C(=O)C(N)=O` (Suc-DE[Phe(2-Me)][Tle]L-NleCONH2) displayed an IC50 of more than 200000 nM.

The next assay deals with T1, Neutrophil elastase (Homo sapiens, UniProt P08246).
T1 sequence (P08246 whole entry): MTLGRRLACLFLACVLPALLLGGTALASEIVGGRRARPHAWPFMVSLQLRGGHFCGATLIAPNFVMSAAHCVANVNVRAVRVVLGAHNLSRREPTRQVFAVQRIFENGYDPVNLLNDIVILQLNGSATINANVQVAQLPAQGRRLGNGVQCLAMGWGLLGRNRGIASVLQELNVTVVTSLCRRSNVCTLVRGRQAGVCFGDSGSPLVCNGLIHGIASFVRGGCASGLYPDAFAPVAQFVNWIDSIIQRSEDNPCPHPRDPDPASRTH
The experiment in a line: Compound was tested for inhibition of Elastase.
`CCCC[C@@H](NC(=O)[C@H](CC(C)C)NC(=O)[C@@H](NC(=O)[C@H](Cc1ccccc1C)NC(=O)[C@H](CCC(=O)O)NC(=O)[C@H](CC(=O)O)NC(=O)CCC(=O)O)C(C)(C)C)C(=O)C(N)=O` (Suc-DE[Phe(2-Me)][Tle]L-X3): it took 12000 nM to reach half-maximal inhibition (IC50).
